Where “and” joins values, the source holds several entries; their conditions need not be identical. Identical values can stand only once. Inconclusive results and toxic doses are left out.
System: B6C3F1 mice, intracerebral ependymoblastoma, median survival T/C
Test: NCI In Vivo Anticancer Drug Screen. Data for tumor model Ependymoblastoma (intracerebral) in B6C3F1 mice
Conditions: endpoint: median survival time, higher = longer survival
Protocol: The antitumor activity of compounds was measured in mice bearing transplantable tumors. Survival or tumor size were measured and the results are expressed as the measurement made in the treated group (T) divided by the measurement made in the vehicle treated control group (C). The tumor model used in this assay is Ependymoblastoma (intracerebral) in B6C3F1 mice

[1] = dose: 25.0 mg/kg/injection, schedule: Q01DX005 (ip), vehicle: saline
[2] = dose: 50.0 mg/kg/injection, schedule: Q01DX005 (ip), vehicle: saline
[3] = dose: 2.0 mg/kg/injection, schedule: Q01DX005 (ip), vehicle: saline
[4] = dose: 4.0 mg/kg/injection, schedule: Q01DX005 (ip), vehicle: saline

COc1ccc2c(c1OC(C)=O)-c1cc(OC(C)=O)cc3c1C(C2)N(C(=O)CBr)CC3 (configuration not stated)
T/C [1]: 96 % of control | T/C [2]: 91 % of control

CN(Cc1cnc2nc(N)nc(N)c2n1)c1ccc(C(=O)N[C@@H](CCC(=O)O)C(=O)O)cc1
T/C (dose: 4.0 mg/kg/injection, schedule: Q01DX009 (ip), vehicle: saline with Tween-80): 118 % of control | T/C (dose: 4.0 mg/kg/injection, schedule: Q04DX003 (ip), vehicle: saline with Tween-80): 118 % of control | T/C (dose: 8.0 mg/kg/injection, schedule: Q01DX009 (ip), vehicle: saline with Tween-80): 106 % of control | T/C (dose: 8.0 mg/kg/injection, schedule: Q04DX003 (ip), vehicle: saline with Tween-80): 110 % of control | T/C (dose: 16.0 mg/kg/injection, schedule: Q01DX009 (ip), vehicle: saline with Tween-80): 111 % of control | T/C (dose: 16.0 mg/kg/injection, schedule: Q04DX003 (ip), vehicle: saline with Tween-80): 98 % of control | T/C (dose: 32.0 mg/kg/injection, schedule: Q01DX009 (ip), vehicle: saline with Tween-80): 109 % of control

O=NN(CCCl)C(=O)NC1OC(CO)C(O)C(O)C1O (configuration not stated)
T/C (dose: 0.31 mg/kg/injection, schedule: Q01DX009 (ip), vehicle: saline): 104 % of control | T/C (dose: 0.63 mg/kg/injection, schedule: Q01DX009 (ip), vehicle: saline): 115 % of control | T/C (dose: 1.0 mg/kg/injection, schedule: Q01DX005 (ip), vehicle: saline): 119 % of control | T/C [3]: 113 % of control | T/C (dose: 4.0 mg/kg/injection, schedule: Q01DX001 (ip), vehicle: saline): 108 % of control | T/C [4]: 122 % of control | T/C (dose: 8.0 mg/kg/injection, schedule: Q01DX001 (ip), vehicle: saline): 105 % of control | T/C (dose: 16.0 mg/kg/injection, schedule: Q01DX001 (ip), vehicle: saline): 105 % of control | T/C (dose: 32.0 mg/kg/injection, schedule: Q01DX001 (ip), vehicle: saline): 100 % of control | T/C (dose: 64.0 mg/kg/injection, schedule: Q01DX001 (ip), vehicle: saline): 108 % of control | T/C (dose: 128.0 mg/kg/injection, schedule: Q01DX001 (ip), vehicle: saline): 94 % of control

N[C@H](C(=O)O)[C@@H]1CC(Cl)=NO1
T/C (dose: 1.0 mg/kg/injection, schedule: Q01DX005 (ip), vehicle: saline + Tween-80 + alcohol): 112 % of control | T/C (dose: 2.0 mg/kg/injection, schedule: Q01DX005 (ip), vehicle: saline + Tween-80 + alcohol): 106 % of control | T/C [3]: 97 % of control and 111 % of control | T/C (dose: 4.0 mg/kg/injection, schedule: Q01DX005 (ip), vehicle: saline + Tween-80 + alcohol): 114 % of control | T/C [4]: 104 % of control and 121 % of control | T/C (dose: 8.0 mg/kg/injection, schedule: Q01DX005 (ip), vehicle: saline + Tween-80 + alcohol): 118 % of control | T/C (dose: 8.0 mg/kg/injection, schedule: Q01DX005 (ip), vehicle: saline): 111 % of control and 117 % of control | T/C (dose: 16.0 mg/kg/injection, schedule: Q01DX005 (ip), vehicle: saline + Tween-80 + alcohol): 89 % of control | T/C (dose: 16.0 mg/kg/injection, schedule: Q01DX005 (ip), vehicle: saline): 109 % of control and 124 % of control | T/C (dose: 32.0 mg/kg/injection, schedule: Q01DX005 (ip), vehicle: saline): 111 % of control

COc1ccc2c(c1)CCC(c1ccccc1)=C2c1ccc(OCCN2CCCC2)cc1
T/C (dose: 8.0 mg/kg/injection, schedule: Q01DX005 (ip), vehicle: Klucel (hydroxypropylcellulose) (HPC)): 106 % of control | T/C (dose: 12.0 mg/kg/injection, schedule: Q01DX005 (ip), vehicle: saline with Tween-80): 108 % of control | T/C (dose: 16.0 mg/kg/injection, schedule: Q01DX005 (ip), vehicle: Klucel (hydroxypropylcellulose) (HPC)): 106 % of control | T/C (dose: 24.0 mg/kg/injection, schedule: Q01DX005 (ip), vehicle: saline with Tween-80): 110 % of control | T/C (dose: 32.0 mg/kg/injection, schedule: Q01DX005 (ip), vehicle: Klucel (hydroxypropylcellulose) (HPC)): 110 % of control | T/C (dose: 48.0 mg/kg/injection, schedule: Q01DX005 (ip), vehicle: saline with Tween-80): 104 % of control | T/C (dose: 64.0 mg/kg/injection, schedule: Q01DX005 (ip), vehicle: Klucel (hydroxypropylcellulose) (HPC)): 101 % of control | T/C (dose: 96.0 mg/kg/injection, schedule: Q01DX005 (ip), vehicle: saline with Tween-80): 107 % of control

O=CC(NC(=O)N(CCCl)N=O)C(O)C(O)C(O)CO (configuration not stated)
T/C (dose: 0.12 mg/kg/injection, schedule: Q01DX005 (ip), vehicle: saline): 97 % of control and 99 % of control and 108 % of control | T/C (dose: 0.13 mg/kg/injection, schedule: Q01DX005 (ip), vehicle: saline): 91 % of control and 93 % of control | T/C (dose: 1.0 mg/kg/injection, schedule: Q01DX001 (ip), vehicle: Klucel (hydroxypropylcellulose) (HPC)): 93 % of control and 104 % of control and 107 % of control | T/C (dose: 1.0 mg/kg/injection, schedule: Q01DX005 (ip), vehicle: Klucel (hydroxypropylcellulose) (HPC)): 108 % of control | T/C (dose: 2.0 mg/kg/injection, schedule: Q01DX001 (ip), vehicle: Klucel (hydroxypropylcellulose) (HPC)): 99 % of control and 103 % of control and 108 % of control | T/C (dose: 2.0 mg/kg/injection, schedule: Q01DX005 (ip), vehicle: Klucel (hydroxypropylcellulose) (HPC)): 119 % of control | T/C (dose: 3.13 mg/kg/injection, schedule: Q01DX001 (ip), vehicle: saline): 115 % of control | T/C (dose: 4.0 mg/kg/injection, schedule: Q01DX001 (ip), vehicle: Klucel (hydroxypropylcellulose) (HPC)): 100 % of control and 107 % of control and 108 % of control | T/C (dose: 4.0 mg/kg/injection, schedule: Q01DX009 (ip), vehicle: saline): 195 % of control | T/C (dose: 6.25 mg/kg/injection, schedule: Q01DX001 (ip), vehicle: saline): 122 % of control | T/C (dose: 8.0 mg/kg/injection, schedule: Q01DX001 (ip), vehicle: Klucel (hydroxypropylcellulose) (HPC)): 103 % of control and 110 % of control and 113 % of control | T/C (dose: 16.0 mg/kg/injection, schedule: Q01DX001 (ip), vehicle: Klucel (hydroxypropylcellulose) (HPC)): 111 % of control and 115 % of control and 119 % of control | T/C (dose: 25.0 mg/kg/injection, schedule: Q01DX001 (ip), vehicle: saline): 157 % of control

NC(=O)c1ncn(C2OC(CO)C(O)C2O)n1 (configuration not stated)
T/C (dose: 20.0 mg/kg/injection, schedule: Q01DX005 (ip), vehicle: saline): 99 % of control and 100 % of control | T/C (dose: 40.0 mg/kg/injection, schedule: Q01DX005 (ip), vehicle: saline): 98 % of control and 101 % of control | T/C (dose: 80.0 mg/kg/injection, schedule: Q01DX005 (ip), vehicle: saline): 92 % of control and 103 % of control | T/C (dose: 160.0 mg/kg/injection, schedule: Q01DX005 (ip), vehicle: saline): 104 % of control and 121 % of control | T/C (dose: 320.0 mg/kg/injection, schedule: Q01DX005 (ip), vehicle: saline): 97 % of control and 118 % of control

C(COCCOCC1CO1)OCCOCC1CO1 (configuration not stated)
T/C [1]: 100 % of control and 118 % of control | T/C [2]: 97 % of control and 121 % of control | T/C (dose: 100.0 mg/kg/injection, schedule: Q01DX005 (ip), vehicle: saline): 97 % of control and 100 % of control | T/C (dose: 200.0 mg/kg/injection, schedule: Q01DX005 (ip), vehicle: saline): 105 % of control

CC(C)(N)C(=O)O
T/C (dose: 12.5 mg/kg/injection, schedule: Q01DX005 (ip), vehicle: saline with Tween-80): 103 % of control | T/C (dose: 25.0 mg/kg/injection, schedule: Q01DX005 (ip), vehicle: saline with Tween-80): 114 % of control | T/C (dose: 50.0 mg/kg/injection, schedule: Q01DX005 (ip), vehicle: saline with Tween-80): 114 % of control | T/C (dose: 100.0 mg/kg/injection, schedule: Q01DX005 (ip), vehicle: saline with Tween-80): 105 % of control | T/C (dose: 200.0 mg/kg/injection, schedule: Q01DX005 (ip), vehicle: saline with Tween-80): 97 % of control | T/C (dose: 400.0 mg/kg/injection, schedule: Q01DX005 (ip), vehicle: saline with Tween-80): 95 % of control | T/C (dose: 800.0 mg/kg/injection, schedule: Q01DX005 (ip), vehicle: saline with Tween-80): 98 % of control | T/C (dose: 1600.0 mg/kg/injection, schedule: Q01DX005 (ip), vehicle: saline with Tween-80): 116 % of control

CN1C(=O)CC(c2ccc(NC(=O)N(CCCl)N=O)cc2)C1=O (configuration not stated)
T/C (dose: 0.75 mg/kg/injection, schedule: Q01DX005 (ip), vehicle: distilled water + Tween-80): 119 % of control | T/C (dose: 1.5 mg/kg/injection, schedule: Q01DX005 (ip), vehicle: distilled water + Tween-80): 180 % of control | T/C (dose: 6.0 mg/kg/injection, schedule: Q01DX005 (ip), vehicle: distilled water + Tween-80): 210 % of control | T/C (dose: 12.0 mg/kg/injection, schedule: Q01DX005 (ip), vehicle: distilled water + Tween-80): 240 % of control
